The values that follow come from US9708314B2, “Heterocyclic amide compound” (NISSAN CHEMICAL INDUSTRIES, LTD., priority 2013, dated 2017).

Common to all, as to assay type: in vivo
For experiment [1], the system named is Amaranthus retroflexus. The experiment in a line: Test Example 4: herbicidal effect by application to foliage (diluvial soil, plastic box). To be noted: Application herbicide amount 320 g/ha; foliage application. A digest of the protocol:
(§1)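 Read-out is a 0–5 visual grade of herbicidal ratio (5: ≥90%, almost withered; 0: ≤5%) taken three weeks after treatment. Compound was applied as a diluted emulsion to stem and leaf parts of 14-day greenhouse-grown plants (25° C. to 30° C.) at rates expressed as g/ha.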

Experiment [2] concerns Veronica persica. Described as above. To be noted: Application herbicide amount 320 g/ha; foliage application. The method in brief:
as §1

Experiment [3] relates to Lolium multiflorum Lam. The experiment is described as above. The conditions noted are these: Application herbicide amount 320 g/ha; foliage application. The method in brief: as §1
Experiment [4] relates to Avena fatua. The experiment is described as above. To be noted: Application herbicide amount 320 g/ha; foliage application. A digest of the protocol:
as §1

The test system of experiment [5] is Galium spurium. The description is as above. To be noted: Application herbicide amount 320 g/ha; foliage application. A digest of the protocol: as §1
For experiment [6], the system named is Digitaria ciliaris. Described as above. The conditions noted are these: Application herbicide amount 320 g/ha; foliage application. The method in brief:
as §1

Experiment [7] concerns Chenopodium album. The experiment is described as above. The conditions noted are these: Application herbicide amount 320 g/ha; foliage application. A digest of the protocol:
as §1

The test system of experiment [8] is Abutilon theophrasti. The experiment is described as above. The conditions noted are these: Application herbicide amount 320 g/ha; foliage application. The method in brief: as §1
In experiment [9] the test system is Echinochloa crus-galli var. crus-galli. Described as above. The conditions noted are these: Application herbicide amount 320 g/ha; foliage application. The method in brief:
as §1

The test system of experiment [10] is Apera spica-venti. The experiment is described as above. To be noted: Application herbicide amount 320 g/ha; foliage application. A digest of the protocol: as §1
In experiment [11] the test system is Setaria viridis. Described as above. To be noted: Application herbicide amount 320 g/ha; foliage application. A digest of the protocol: as §1
Experiment [12] has as its system Alopecurus myosuroides. The description is as above. To be noted: Application herbicide amount 320 g/ha; foliage application. A digest of the protocol: as §1
In experiment [13] the test system is Echinochloa oryzacola Vasing. Briefly: Test Example 2: herbicidal activity, application during weed generation in submerged conditions. The conditions noted are these: Eighteenth Table; application herbicide amount 320 g/ha. A digest of the protocol:
(§2)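 Paddy-type pot test: flooded soil, 4 cm depth, greenhouse 25–30 °C. Emulsion formulation diluted in water, applied to water surface at 1–2 leaf stage; rate expressed as g/ha. Read-out at 3 wk, 0–5 score.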

In experiment [14] the test system is Scirpus juncoides. Described as above. To be noted: Eighteenth Table; application herbicide amount 320 g/ha. A digest of the protocol: as §2
For experiment [15], the system named is Monochoria vaginalis. The description is as above. To be noted: Eighteenth Table; application herbicide amount 320 g/ha. A digest of the protocol: as §2

For the compound `Cc1nnc(NC(=O)c2ccc(C(F)(F)F)n3c(SCC4CCCO4)nnc23)o1` (stereo not drawn) [1-116], the “N (Amaranthus retroflexus) herbicidal effect grade” value in [1] is 4 (Herbicidal ratio of 70% or more and less than 90%). Also, in experiment [2], the “R (Veronica persica) herbicidal effect grade” value is 4 (Herbicidal ratio of 70% or more and less than 90%). In experiment [3], the “K (Lolium multiflorum Lam.) herbicidal effect grade” value was 1 (Herbicidal ratio of 5% or more and less than 20%). Further, in [4], the “I (Avena fatua) herbicidal effect grade” value is 3 (Herbicidal ratio of 40% or more and less than 70%). The “Q (Galium spurium) herbicidal effect grade” value in experiment [5] is 3 (Herbicidal ratio of 40% or more and less than 70%). In addition, the “F (Digitaria ciliaris) herbicidal effect grade” value in experiment [6] is given as 5 (Herbicidal ratio of 90% or more (almost completely withered)). Besides, in experiment [7], the “O (Chenopodium album) herbicidal effect grade” value is recorded as 5 (Herbicidal ratio of 90% or more (almost completely withered)). Moreover, the “M (Abutilon theophrasti) herbicidal effect grade” value in experiment [8] is 4 (Herbicidal ratio of 70% or more and less than 90%). The “H (Echinochloa crus-galli var. crus-galli) herbicidal effect grade” value in experiment [9] is 5 (Herbicidal ratio of 90% or more (almost completely withered)). In addition, the “L (Apera spica-venti.) herbicidal effect grade” value in [10] was 1 (Herbicidal ratio of 5% or more and less than 20%). Further, the “G (Setaria viridis) herbicidal effect grade” value in experiment [11] is 4 (Herbicidal ratio of 70% or more and less than 90%). In [12], the “J (Alopecurus myosuroides) herbicidal effect grade” value is 1 (Herbicidal ratio of 5% or more and less than 20%). Besides, the “A (Echinochloa oryzicola Vasing.) herbicidal ratio grade” value in experiment [13] was 3 (Herbicidal ratio of 40% or more and less than 70%). Moreover, the “B (Scirpus juncoides) herbicidal ratio grade” value in experiment [14] was 4 (Herbicidal ratio of 70% or more and less than 90%). Also, the “C (Monochoria vaginalis) herbicidal ratio grade” value in experiment [15] is given as 0 (Herbicidal ratio of 5% or less (almost no effect)).
On to `COCCN(C)c1nnc2c(C(=O)Nc3nnco3)ccc(C(F)(F)F)n12` [1-121], for which, in [1], the “N (Amaranthus retroflexus) herbicidal effect grade” value is 5 (Herbicidal ratio of 90% or more (almost completely withered)). For the same compound, in [2], the “R (Veronica persica) herbicidal effect grade” value is 5 (Herbicidal ratio of 90% or more (almost completely withered)). Besides, the “K (Lolium multiflorum Lam.) herbicidal effect grade” value in experiment [3] was 3 (Herbicidal ratio of 40% or more and less than 70%). Also, the “I (Avena fatua) herbicidal effect grade” value in experiment [4] is 3 (Herbicidal ratio of 40% or more and less than 70%). Moreover, the “Q (Galium spurium) herbicidal effect grade” value in [5] is 3 (Herbicidal ratio of 40% or more and less than 70%). Further, the “F (Digitaria ciliaris) herbicidal effect grade” value in experiment [6] was 5 (Herbicidal ratio of 90% or more (almost completely withered)). Further, the “O (Chenopodium album) herbicidal effect grade” value in experiment [7] was 5 (Herbicidal ratio of 90% or more (almost completely withered)). Also, the “M (Abutilon theophrasti) herbicidal effect grade” value in experiment [8] is 4 (Herbicidal ratio of 70% or more and less than 90%). The “H (Echinochloa crus-galli var. crus-galli) herbicidal effect grade” value in experiment [9] is 5 (Herbicidal ratio of 90% or more (almost completely withered)). Moreover, in [10], the “L (Apera spica-venti.) herbicidal effect grade” value is 3 (Herbicidal ratio of 40% or more and less than 70%). Also, the “G (Setaria viridis) herbicidal effect grade” value in experiment [11] was 4 (Herbicidal ratio of 70% or more and less than 90%). In [12], the “J (Alopecurus myosuroides) herbicidal effect grade” value was 3 (Herbicidal ratio of 40% or more and less than 70%). For the same compound, the “A (Echinochloa oryzicola Vasing.) herbicidal ratio grade” value in experiment [13] is 4 (Herbicidal ratio of 70% or more and less than 90%). In addition, in [14], the “B (Scirpus juncoides) herbicidal ratio grade” value is 4 (Herbicidal ratio of 70% or more and less than 90%). Further, in [15], the “C (Monochoria vaginalis) herbicidal ratio grade” value was 4 (Herbicidal ratio of 70% or more and less than 90%).
`Cc1nnc(NC(=O)c2ccc(C(F)(F)F)n3c(N4CCS(=O)(=O)CC4)nnc23)o1` [1-120]: the “N (Amaranthus retroflexus) herbicidal effect grade” value in experiment [1] is listed as 5 (Herbicidal ratio of 90% or more (almost completely withered)). For the same compound, the “R (Veronica persica) herbicidal effect grade” value in [2] is 5 (Herbicidal ratio of 90% or more (almost completely withered)). Further, the “K (Lolium multiflorum Lam.) herbicidal effect grade” value in experiment [3] was 3 (Herbicidal ratio of 40% or more and less than 70%). The “I (Avena fatua) herbicidal effect grade” value in experiment [4] is 3 (Herbicidal ratio of 40% or more and less than 70%). Besides, the “Q (Galium spurium) herbicidal effect grade” value in [5] is on record as 5 (Herbicidal ratio of 90% or more (almost completely withered)). Moreover, the “F (Digitaria ciliaris) herbicidal effect grade” value in [6] is reported as 5 (Herbicidal ratio of 90% or more (almost completely withered)). Besides, the “O (Chenopodium album) herbicidal effect grade” value in experiment [7] was 5 (Herbicidal ratio of 90% or more (almost completely withered)). The “M (Abutilon theophrasti) herbicidal effect grade” value in experiment [8] is 4 (Herbicidal ratio of 70% or more and less than 90%). The “H (Echinochloa crus-galli var. crus-galli) herbicidal effect grade” value in experiment [9] is 5 (Herbicidal ratio of 90% or more (almost completely withered)). For the same compound, the “L (Apera spica-venti.) herbicidal effect grade” value in [10] is recorded as 5 (Herbicidal ratio of 90% or more (almost completely withered)). For the same compound, the “G (Setaria viridis) herbicidal effect grade” value in experiment [11] is listed as 5 (Herbicidal ratio of 90% or more (almost completely withered)). Besides, the “J (Alopecurus myosuroides) herbicidal effect grade” value in experiment [12] is 3 (Herbicidal ratio of 40% or more and less than 70%). Moreover, the “A (Echinochloa oryzicola Vasing.) herbicidal ratio grade” value in experiment [13] was 3 (Herbicidal ratio of 40% or more and less than 70%). The “B (Scirpus juncoides) herbicidal ratio grade” value in [14] is 3 (Herbicidal ratio of 40% or more and less than 70%). Further, in experiment [15], the “C (Monochoria vaginalis) herbicidal ratio grade” value was 2 (Herbicidal ratio of 20% or more and less than 40%).
Turning to `CC(=O)CSc1nnc2c(C(=O)Nc3nnc(C)o3)ccc(C(F)(F)F)n12` [1-125], in [1], the “N (Amaranthus retroflexus) herbicidal effect grade” value was 3 (Herbicidal ratio of 40% or more and less than 70%). For the same compound, the “R (Veronica persica) herbicidal effect grade” value in experiment [2] is reported as 0 (Herbicidal ratio of 5% or less (almost no effect)). Further, in experiment [3], the “K (Lolium multiflorum Lam.) herbicidal effect grade” value is reported as 0 (Herbicidal ratio of 5% or less (almost no effect)). In addition, in [4], the “I (Avena fatua) herbicidal effect grade” value is 1 (Herbicidal ratio of 5% or more and less than 20%). Further, the “Q (Galium spurium) herbicidal effect grade” value in [5] is 0 (Herbicidal ratio of 5% or less (almost no effect)). Further, in [6], the “F (Digitaria ciliaris) herbicidal effect grade” value is 4 (Herbicidal ratio of 70% or more and less than 90%). For the same compound, the “O (Chenopodium album) herbicidal effect grade” value in experiment [7] is 5 (Herbicidal ratio of 90% or more (almost completely withered)). The “M (Abutilon theophrasti) herbicidal effect grade” value in experiment [8] was 3 (Herbicidal ratio of 40% or more and less than 70%). The “H (Echinochloa crus-galli var. crus-galli) herbicidal effect grade” value in experiment [9] was 4 (Herbicidal ratio of 70% or more and less than 90%). Besides, the “L (Apera spica-venti.) herbicidal effect grade” value in experiment [10] was 0 (Herbicidal ratio of 5% or less (almost no effect)). In addition, the “G (Setaria viridis) herbicidal effect grade” value in [11] was 1 (Herbicidal ratio of 5% or more and less than 20%). In experiment [12], the “J (Alopecurus myosuroides) herbicidal effect grade” value was 0 (Herbicidal ratio of 5% or less (almost no effect)). Further, in [13], the “A (Echinochloa oryzicola Vasing.) herbicidal ratio grade” value was 0 (Herbicidal ratio of 5% or less (almost no effect)). In addition, in experiment [14], the “B (Scirpus juncoides) herbicidal ratio grade” value is 2 (Herbicidal ratio of 20% or more and less than 40%). The “C (Monochoria vaginalis) herbicidal ratio grade” value in [15] was 1 (Herbicidal ratio of 5% or more and less than 20%).
